This passage reports melting point results from patent US6958343B2, “Thiazolopyrimidines and their use as modulators of chemokine receptor activity” (AstraZeneca, AB, priority 2000, dated 2005).

Structures are written as SMILES.

The term melting point denotes the temperature, or range, at which the solid turns liquid. `Cc1nc(CSc2nc(NC(CO)CO)c3sc(N)nc3n2)cs1` [Example 10, 2-[[2-Amino-5-[[(2-methyl-4-thiazolyl)methyl]thio]thiazolo[4,5-d]pyrimidin-7-yl]amino]-1,3-propanediol]: the melting point was 158 to 160 °C.

For `Cc1nc(CSc2nc(NC(C)(C)CO)c3sc(N)nc3n2)cs1` [Example 11, 2-[[2-Amino-5-[[(2-methyl-4-thiazolyl)methyl]thio]thiazolo[4,5-d]pyrimidin-7-yl]amino]-2-methyl-1-propanol], the melting point is 250 to 252 °C.

Regarding `C[C@H](CO)Nc1nc(SCc2ccno2)nc2nc(N)sc12` [Example 9, (2R)-2-[[2-Amino-5-[(5-isoxazolylmethyl)thio]thiazolo[4,5-d]pyrimidin-7-yl]amino]-1-propanol], the melting point was 183 to 185 °C.
